Data set [1] has as its system neonatal rat cardiomyocytes (NRCMs). In words: LDH/MTT cytotoxicity assay after simulated ischemia (SI). Particulars: for SI-induced cytotoxicity (LDH/MTT ratio): sildenafil 1 μM.
Method: (§2) After overnight culture, subsets of NRCMs were infected with adenovirus (AdV) containing a FLAG-tagged PDE5, FLAG control, Myc-tagged CHIP WT or K31A (provided by Dr. Cam Patterson), S20E or S20A (Welgen Inc., Worcester, MA). Forty-eight hours after infection, cells were exposed to either simulated ischemia (SI) or normal conditions. SI involved incubating cells in DMEM containing deoxyglucose (20 mM), NaCl (125 mM), KCl (8 mM), KH2PO4 (1.2 mM), MgSO4 (1.25 mM), CaCl2) (1.2 mM), NaHCO3(6.25 mM), sodium lactate (5 mM), and HEPES (20 mM) with a pH of 6.6. Cells were then placed in an incubator chamber (Billups-Rothenberg) with 95% nitrogen, 4% carbon dioxide, and 1% oxygen. Normoxic controls were incubated in DMEM supplemented with 10% FBS in air composed of 95% carbon dioxide and 5% oxygen. RNA or protein was harvested after 48 hours of SI. Cells were also treated with sildenafil (1 μM) or vehicle, or small interference RNA (siRNA, 100 pM) specific for rat Stub1 (Qiagen, Cat. #: SI01532251) or scrambled control provided 24 hours after plating and transfected with Xfect (Takara) per manufacturer protocol.
(§3) Lactate dehydrogenase (LDH) leakage and (3-[4,5-dimethylthiazol-2-yl]-2,5-diphenyltetrazolium bromide) (MTT) were assessed in cultured cardiomyocytes and media after SI from the same culture dish. LDH was assayed by commercial assay (Roche) following manufacturer's protocol, read in 96 well microplates on a Spectramax M5 (Molecular Devices) at 490 nm absorbance. For MTT, cells were washed in phosphate-buffered saline, MTT (Sigma-Aldrich) working solution added to the culture dish, incubated at 37° C., solubilized with acidic isopropanol, transferred to a 96 well plate, and read at 570 nm with background subtraction at 650 nm on a Spectramax M5.
The test system of another data set is proteasome. The data set can be described thus: Proteasome activity assay in NRCMs. The data set is classed as cell-based, rat. Particulars: control cells and cells subjected to SI. The protocol:
Proteasome peptidase activity assays were performed as described (22) with slight modification.

Another data set deals with CHIP pS20. In words: Immunoblot for phospho-S20 CHIP in myocytes. The data set is classed as cell-based, rat. As to conditions: cardiomyocytes; cGMP or SIL; DT3 1 μM. The protocol:
(§1) Tissue and cultured cardiomyocytes were lysed in 1× lysis buffer (Cell Signaling Technology), protein concentration was measured by bicinchoninic acid assay (Pierce), and extracts were subjected to SDS-PAGE using Novex Tris-Glycine Gels (4-20% gradient gel, Life Technologies) or Mini-protean TGX Gels (4-20% gradient gel, Bio-Rad), transferred to nitrocellulose membranes, and probed with various primary antibodies (CHIP (#2080S), Hsc70 (#8444S), p-CHIP S20 (Custom antibody, AbMart Inc., Shanghai, China; Project: 25011-1), Myc (#2276S), GAPDH (#2118S), and α-tubulin (#3878S) (Cell Signaling) and ubiquitin antibody (#SAB4503053) from Sigma), and fluorescence-labeled secondary antibodies (Licor, #926-32211, 926-32210, 926-68023, or 926-68022). Gels were imaged (Odyssey, Licor) and band intensity quantified (Odyssey Software 3.1).
Human CHIP peptide fragments containing amino acid residues 13-30 were incubated with cGMP/PKG and assayed by MS. […] Phosphorylation was also observed at neighboring S24 and S26, but only when a S20A CHIP mutant was used (FIG. 2D). This indicates the primary target for PKG on CHIP is at S20. A monoclonal phospho-antibody generated against the S20 site in CHIP was tested in vitro with recombinant PKG1α and CHIP, verifying a consistent phospho-S20-CHIP signal. Use of a CHIP-S20A mutant CHIP confirmed specificity (FIG. 2E).
For orientation: A western blot detects proteins with antibodies after separation by electrophoresis.

The test system of data set [2] is transthyretin (TTR) V122I. The data set can be described thus: TTR aggregates in NRCMs by confocal microscopy. The data set is classed as cell-based, rat. Particulars: TTR V122I 5 μM, adenovirus, 14 days. Here is the method:
Neonatal rat cardiomyocytes (NRCMs) were cultured in mutant transthyretin (TTR) valine 122 to isoleucine (V122I)-containing medium (5 μM) and transfected with a Chip SE (serine 20 phospho-mimetic) or SA ([…] phospho-null) adenovirus and cultured for 14 days. Cardiomyocytes were stained with phalloidin (red), TTR (green), and nuclei with DAPI (blue).

A further data set deals with T1, Hsc70 (Rattus norvegicus, UniProt P63018).
T1 construct: lysate from myocytes with or without exposure to SI were immunoprecipitated using Hsc70 as bait; endogenous in cells; host or cells: neonatal rat cardiomyocytes infected with adenovirus for Myc-tagged CHIP WT, S20E or S20A
The data set can be described thus: CHIP-Hsc70 co-immunoprecipitation from myocyte lysate. The data set is classed as cell-based. As to conditions: myocytes with or without SI, Hsc70 as bait. The protocol:
as §1
To test whether thermodynamic stabilization of CHIP-HSC70 due to S20 phosphorylation enhances protein binding, lysate from myocytes with or without exposure to SI were immunoprecipitated using Hsc70 as bait. […] Reduced CHIP-Hsc70 interaction was also observed in vivo following MI in hearts with PKG activation suppressed by mPDE5A/oe, whereas this was enhanced in WT hearts (FIG. 5C, FIG. 14B).

A further data set has as its system ubiquitinated proteins. In words: Western blot of ubiquitinated proteins in NRCMs after SI. The data set is classed as cell-based, rat. As to conditions: adenovirus CHIP variant, SI 48 hours, compared to CHIP-WT. The protocol: as §1
The next data set deals with TTR-V122I. In words: TTR abundance in hiPSC-CMs by western blot. The data set is classed as cell-based, human. Particulars: siLamp2A 100 μM, TTR-V122I 5 μM, 14 days. The protocol:
Human induced pluripotent stem cell derived cardiomyocytes (hiPSC-CMs) were infected with Ad-Chip WT, SE, or SA (10 MOI), in the presence or absence of protein kinase G (PKG) stimulation via cGMP ([…]) and exposed to media containing TTR-V122I (5 μM) or control for 14 days. Cells were lysed and TTR abundance was determined by western blotting for TTR with a total protein stain used to show equal loading.
Human induced pluripotent stem cell derived cardiomyocytes (hiPSC-CMs) were infected with Ad-Chip WT, SE, or SA (10 MOI), in the presence or absence of Lamp2A knockdown via siRNA (siLamp2A, 100 μM) and exposed to media containing TTR-V122I (5 μM) or control for 14 days. Cells were lysed and TTR abundance was determined by western blotting for TTR with a total protein stain used to show equal loading. Knocking down Lamp2A removes the method of protein degradation known as chaperone mediated autophagy (CMA).

Data set [3] deals with neonatal rat cardiomyocytes (NRCMs).
Method: as §2, §3

Like-named read-outs stand apart in the source and are kept apart here.

Regarding `CCCc1nn(C)c2c(=O)[nH]c(-c3cc(S(=O)(=O)N4CCN(C)CC4)ccc3OCC)nc12` [SIL, sildenafil], the results for the “SI-induced cytotoxicity (LDH/MTT ratio)” value in data set [1] (NRCMs expressing CHIP (scrambled siRNA)) and in data set [1] (NRCMs lacking CHIP (CHIP-siRNA)) were “reduced SI-induced cytotoxicity” and “this protective effect was lost”, respectively. Besides, the “cytotoxicity with SIL across CHIP forms” value in data set [1] (NRCMs expressing WT, S20E or S20A CHIP, control and SI conditions) is “lowered cytotoxicity regardless of which CHIP protein was expressed”. The proteasome activity entry in the data set on proteasome is recorded as “augmented”. Also, the “CHIP pS20 level” value in the data set with CHIP pS20 is recorded as “CHIP pS20 increased”.

B1: CHIP-S20A: phospho-silenced (phospho-null) CHIP mutant, serine 20 to alanine (protein)
chain: MKGKEEKEGGARLGAGGGAPEKSPSAQELKEQGNRLFVGRKYPEAAACYGRVITRNPLVAVYYTNRALCYLKMQQHEQALADCRRALELDGQSVKAHFFLGQCQLEMESYDEAIANLQRAYSLAKEQRLNFGDDIPSALRIAKKKRWNSIEERRIHQESELHSYLSRLIAAERERELEECQRNHEGDEDDSHVRAQQACIEAKHDKYMADMDELFSQVDEKRKKRDIPDYLCGKISFELMREPCITPSGITYDRKDIEEHLQRVGHFDPVTRSPLTQEQLIPNLAMKEVIDAFISENGWVEDY
modifications: left off: small tags and cut ends
notes: phospho-silenced (phospho-null) CHIP mutant, serine 20 to alanine
As for B1, the TTR positive aggregates result in data set [2] was “increased TTR positive aggregates”. In addition, in the data set with Hsc70, the “co-precipitation of CHIP and Hsc70” value is given as “co-precipitation was absent”. Besides, in the data set on ubiquitinated proteins, the “ubiquitinated proteins after SI” value is “significantly amplified”. Besides, the “TTR accumulation with Lamp2A knockdown” value with TTR-V122I was “exacerbated the accumulation of TTR”. In addition, the “SI-induced cytotoxicity (LDH/MTT ratio)” value in data set [3] was “displayed greater cytotoxicity and blunted the protective effects from SIL”.

The values above are taken from US20230374087A1, “METHOD TO IMPROVE PROTEIN QUALITY CONTROL” (The Johns Hopkins University, priority 2020, published 2023).
